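Following 48 hours of exposure in 96-well plates, responses at five concentrations were used to interpolate endpoints linearly. Here, GI50 denotes the concentration required for 50% inhibition of growth. TGI: total growth inhibition.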
Columns and labels:
Assay in all cases: NCI tumour cell line growth inhibition, 48 h
HS 578T breast = system: HS 578T breast
SN12C renal = system: SN12C renal
IGROV1 ovarian = system: IGROV1 ovarian
NCI-H460 lung = system: NCI-H460 lung
EKVX NSCLC = system: EKVX NSCLC
K-562 leukemia = system: K-562 leukemia
SK-OV-3 ovarian = system: SK-OV-3 ovarian
SK-MEL-2 melanoma = system: SK-MEL-2 melanoma
NCI/ADR-RES ovarian = system: NCI/ADR-RES ovarian
OVCAR-8 ovarian = system: OVCAR-8 ovarian

With COc1ccc(CNC(C)C(=O)O)cc1 (stereo not given) the TGI (HS 578T breast) was over 100 µM, the TGI (SN12C renal) was over 100 µM and the TGI (IGROV1 ovarian) was over 100 µM. It also gave a TGI (NCI-H460 lung) of over 100 µM, a TGI (EKVX NSCLC) of over 100 µM and a TGI (K-562 leukemia) of over 100 µM. The TGI (SK-OV-3 ovarian) was over 100 µM, the TGI (SK-MEL-2 melanoma) was over 100 µM and the TGI (NCI/ADR-RES ovarian) was over 100 µM. For the same compound, the TGI (OVCAR-8 ovarian) was over 100 µM.
In the case of C[N+](C)(CCCCCC[N+](C)(C)CCCN1C(=O)c2cc3ccccc3cc2C1=O)CCCN1C(=O)c2cc3ccccc3cc2C1=O, the GI50 (HS 578T breast) is reported as over 37.5 µM, the TGI (HS 578T breast) is reported as over 37.5 µM and the GI50 (SN12C renal) is reported as over 37.5 µM. For the same compound, the TGI (SN12C renal) was over 37.5 µM, the GI50 (IGROV1 ovarian) was over 37.5 µM and the TGI (IGROV1 ovarian) was over 37.5 µM. It also gave a GI50 (NCI-H460 lung) of over 37.5 µM, a TGI (NCI-H460 lung) of over 37.5 µM and a GI50 (EKVX NSCLC) of over 37.5 µM. The TGI (EKVX NSCLC) was over 37.5 µM, the GI50 (K-562 leukemia) was over 37.5 µM and the TGI (K-562 leukemia) was over 37.5 µM. For the same compound, the GI50 (SK-OV-3 ovarian) was over 37.5 µM, the TGI (SK-OV-3 ovarian) was over 37.5 µM and the GI50 (SK-MEL-2 melanoma) was over 37.5 µM. For the same compound, the TGI (SK-MEL-2 melanoma) was over 37.5 µM, the GI50 (NCI/ADR-RES ovarian) was over 37.5 µM and the TGI (NCI/ADR-RES ovarian) was over 37.5 µM. The GI50 (OVCAR-8 ovarian) was over 37.5 µM and the TGI (OVCAR-8 ovarian) was over 37.5 µM.
In the case of O=S1(=O)NC2CCC3NS(=O)(=O)NC4CCC(N1)N4S(=O)(=O)N23 (stereo not given), the TGI (HS 578T breast) is reported as over 100 µM, the TGI (SN12C renal) is reported as over 100 µM and the TGI (IGROV1 ovarian) is reported as over 100 µM. The TGI (NCI-H460 lung) was over 100 µM, the TGI (EKVX NSCLC) was over 100 µM and the TGI (K-562 leukemia) was over 100 µM. For the same compound, the TGI (SK-OV-3 ovarian) was over 100 µM, the TGI (SK-MEL-2 melanoma) was over 100 µM and the TGI (NCI/ADR-RES ovarian) was over 100 µM. The TGI (OVCAR-8 ovarian) was over 100 µM.
In the case of CO[C@]12C=C/C(=C(/C(=O)OCc3cccnc3)C(=O)CCCCCCCC[C@@]3(OC)C=C/C(=C(/C(=O)OCc4cccnc4)C(=O)CCCCCCCC1)O3)O2, the GI50 (HS 578T breast) is reported as 2.08 µM, the TGI (HS 578T breast) is reported as over 50 µM and the GI50 (SN12C renal) is reported as 1.84 µM. It also gave a TGI (SN12C renal) of 34.2 µM, a GI50 (IGROV1 ovarian) of 1.75 µM and a TGI (IGROV1 ovarian) of 14.7 µM. It also gave a GI50 (NCI-H460 lung) of 1.27 µM, a TGI (NCI-H460 lung) of 3.16 µM and a GI50 (EKVX NSCLC) of 1.97 µM. It also gave a TGI (EKVX NSCLC) of over 50 µM, a GI50 (K-562 leukemia) of 1.46 µM and a TGI (K-562 leukemia) of over 50 µM. It also gave a GI50 (SK-OV-3 ovarian) of 2.43 µM, a TGI (SK-OV-3 ovarian) of over 50 µM and a GI50 (SK-MEL-2 melanoma) of 1.34 µM. It also gave a TGI (SK-MEL-2 melanoma) of 4 µM, a GI50 (NCI/ADR-RES ovarian) of 1.56 µM and a TGI (NCI/ADR-RES ovarian) of over 50 µM. For the same compound, the GI50 (OVCAR-8 ovarian) was 0.959 µM and the TGI (OVCAR-8 ovarian) was over 50 µM.
O=C(N=Nc1c(O)[nH]c2ccccc12)c1oc2ccccc2c1CN1CCN(c2ccccc2)CC1 gave a GI50 (HS 578T breast) of 1.69 µM, a TGI (HS 578T breast) of 10.4 µM and a GI50 (SN12C renal) of 1.3 µM. The TGI (SN12C renal) was 3.9 µM, the GI50 (IGROV1 ovarian) was 2.41 µM and the TGI (IGROV1 ovarian) was 11.2 µM. The GI50 (NCI-H460 lung) was 1.17 µM, the TGI (NCI-H460 lung) was 2.79 µM and the GI50 (EKVX NSCLC) was 1.91 µM. It also gave a TGI (EKVX NSCLC) of 10.3 µM, a GI50 (K-562 leukemia) of 1.98 µM and a TGI (K-562 leukemia) of over 50 µM. It also gave a GI50 (SK-OV-3 ovarian) of 7.3 µM, a TGI (SK-OV-3 ovarian) of 15.7 µM and a GI50 (SK-MEL-2 melanoma) of 5.46 µM. For the same compound, the TGI (SK-MEL-2 melanoma) was 15.8 µM, the GI50 (NCI/ADR-RES ovarian) was 1.29 µM and the TGI (NCI/ADR-RES ovarian) was 4.68 µM. The GI50 (OVCAR-8 ovarian) was 1.66 µM and the TGI (OVCAR-8 ovarian) was 13.4 µM.
In the case of COc1cc2oc(-c3ccc(O)cc3O)c(CC=C(C)C)c(=O)c2c(O)c1/C=C/C(C)C, the TGI (HS 578T breast) is reported as 7.92 µM, the TGI (SN12C renal) is reported as 3.35 µM and the TGI (IGROV1 ovarian) is reported as 12 µM. For the same compound, the TGI (NCI-H460 lung) was 14.5 µM, the TGI (EKVX NSCLC) was 15.3 µM and the TGI (K-562 leukemia) was 4.64 µM. For the same compound, the TGI (SK-OV-3 ovarian) was 20.6 µM, the TGI (SK-MEL-2 melanoma) was 17.9 µM and the TGI (NCI/ADR-RES ovarian) was 8.24 µM. The TGI (OVCAR-8 ovarian) was 3.18 µM.
C=C1CCC2C3(C)COC(c4c(OC)cccc4OC)OC3CCC2(C)C1C/C=C1/C(=O)OCC1O (stereo not given) showed a GI50 (HS 578T breast) of 2.71 µM, a TGI (HS 578T breast) of 10.9 µM and a GI50 (SN12C renal) of 2.33 µM. For the same compound, the TGI (SN12C renal) was 8.27 µM, the GI50 (IGROV1 ovarian) was 1.89 µM and the TGI (IGROV1 ovarian) was 4 µM. For the same compound, the GI50 (NCI-H460 lung) was 4.71 µM, the TGI (NCI-H460 lung) was 19.5 µM and the GI50 (EKVX NSCLC) was 8.47 µM. It also gave a TGI (EKVX NSCLC) of 27.3 µM, a GI50 (K-562 leukemia) of 1.41 µM and a TGI (K-562 leukemia) of 6.28 µM. It also gave a GI50 (SK-OV-3 ovarian) of 5.71 µM, a TGI (SK-OV-3 ovarian) of 20.3 µM and a GI50 (SK-MEL-2 melanoma) of 7.18 µM. It also gave a TGI (SK-MEL-2 melanoma) of 21.9 µM, a GI50 (NCI/ADR-RES ovarian) of 2.65 µM and a TGI (NCI/ADR-RES ovarian) of 7.03 µM. For the same compound, the GI50 (OVCAR-8 ovarian) was 3.09 µM and the TGI (OVCAR-8 ovarian) was 11.5 µM.
CC(C)=CCC1=C(OCC(=O)O)C(=O)c2ccccc2C1=O was tested, and the TGI (HS 578T breast) was 62.6 µM, the TGI (SN12C renal) was 74.8 µM and the TGI (IGROV1 ovarian) was over 100 µM. For the same compound, the TGI (NCI-H460 lung) was over 100 µM, the TGI (EKVX NSCLC) was over 100 µM and the TGI (K-562 leukemia) was over 100 µM. For the same compound, the TGI (SK-OV-3 ovarian) was over 100 µM, the TGI (SK-MEL-2 melanoma) was 84.2 µM and the TGI (NCI/ADR-RES ovarian) was over 100 µM. The TGI (OVCAR-8 ovarian) was over 100 µM.
Compound Cc1ccc(/C=C/C(=N/N=C(N)N)c2ccccc2)cc1 has a GI50 (HS 578T breast) of 1.56 µM, a TGI (HS 578T breast) of 5.14 µM and a GI50 (SN12C renal) of 4.5 µM. It also gave a TGI (SN12C renal) of 16.9 µM, a GI50 (IGROV1 ovarian) of 6.36 µM and a TGI (IGROV1 ovarian) of 23.1 µM. For the same compound, the GI50 (NCI-H460 lung) was 3.1 µM, the TGI (NCI-H460 lung) was 10.1 µM and the GI50 (EKVX NSCLC) was 10.1 µM. For the same compound, the TGI (EKVX NSCLC) was 28 µM, the GI50 (K-562 leukemia) was 0.889 µM and the TGI (K-562 leukemia) was 10.4 µM. The GI50 (SK-OV-3 ovarian) was 2.99 µM, the TGI (SK-OV-3 ovarian) was 12.2 µM and the GI50 (SK-MEL-2 melanoma) was 2.75 µM. It also gave a TGI (SK-MEL-2 melanoma) of 8.04 µM, a GI50 (NCI/ADR-RES ovarian) of 3.14 µM and a TGI (NCI/ADR-RES ovarian) of 12 µM. The GI50 (OVCAR-8 ovarian) was 2.98 µM and the TGI (OVCAR-8 ovarian) was 10.9 µM.
c1ccc(CN2CCC3(CC2)SSC2(CCN(Cc4ccccc4)CC2)SS3)cc1 gave a TGI (HS 578T breast) of over 100 µM, a TGI (SN12C renal) of over 100 µM and a TGI (IGROV1 ovarian) of over 100 µM. The TGI (NCI-H460 lung) was over 100 µM, the TGI (EKVX NSCLC) was 62 µM and the TGI (K-562 leukemia) was over 100 µM. The TGI (SK-OV-3 ovarian) was over 100 µM, the TGI (SK-MEL-2 melanoma) was over 100 µM and the TGI (NCI/ADR-RES ovarian) was over 100 µM. The TGI (OVCAR-8 ovarian) was over 100 µM.
Clc1cc2c(nn1)Nc1ccccc1S2 gave a GI50 (HS 578T breast) of 38.4 µM, a TGI (HS 578T breast) of over 100 µM and a GI50 (SN12C renal) of over 100 µM. It also gave a TGI (SN12C renal) of over 100 µM, a GI50 (IGROV1 ovarian) of over 100 µM and a TGI (IGROV1 ovarian) of over 100 µM. For the same compound, the GI50 (NCI-H460 lung) was over 100 µM, the TGI (NCI-H460 lung) was over 100 µM and the GI50 (EKVX NSCLC) was 35.6 µM. It also gave a TGI (EKVX NSCLC) of over 100 µM, a GI50 (K-562 leukemia) of over 100 µM and a TGI (K-562 leukemia) of over 100 µM. For the same compound, the GI50 (SK-OV-3 ovarian) was over 100 µM, the TGI (SK-OV-3 ovarian) was over 100 µM and the GI50 (SK-MEL-2 melanoma) was over 100 µM. It also gave a TGI (SK-MEL-2 melanoma) of over 100 µM, a GI50 (NCI/ADR-RES ovarian) of over 100 µM and a TGI (NCI/ADR-RES ovarian) of over 100 µM. For the same compound, the GI50 (OVCAR-8 ovarian) was over 100 µM and the TGI (OVCAR-8 ovarian) was over 100 µM.

From PubChem BioAssay (NCI)
